Test results reported in patent publication US20220324835A1 (Nurix Therapeutics, Inc., priority 2018, published 2022).

Assays:
T-cell = assay: IL-2 secretion from T-cells stimulated with anti-CD3 antibody alone (Biological Example 2); format: cell-based, human; settings: T-cell, fold change over baseline, primary human total T-cells, read-out: IL-2 secretion Anti-CD3 stimulation; for fold induction at 1 µM: 1 μM Cbl-b inhibitor; for fold induction at 8 µM: 8 μM Cbl-b inhibitor
Cbl-b [1] = target: T1, Cbl-b (Homo sapiens, UniProt Q13191); assay: Cbl-b inhibition assay (Cbl-b activity assay, FRET, Biological Example 1; 100 mM NaCl, 60 nM Src kinase); format: biochemical; settings: upper bound stated in text lists; read-out: IC50 values in the Cbl-b inhibition assay of Biological Example 1
T1 sequence (Q13191 36-427): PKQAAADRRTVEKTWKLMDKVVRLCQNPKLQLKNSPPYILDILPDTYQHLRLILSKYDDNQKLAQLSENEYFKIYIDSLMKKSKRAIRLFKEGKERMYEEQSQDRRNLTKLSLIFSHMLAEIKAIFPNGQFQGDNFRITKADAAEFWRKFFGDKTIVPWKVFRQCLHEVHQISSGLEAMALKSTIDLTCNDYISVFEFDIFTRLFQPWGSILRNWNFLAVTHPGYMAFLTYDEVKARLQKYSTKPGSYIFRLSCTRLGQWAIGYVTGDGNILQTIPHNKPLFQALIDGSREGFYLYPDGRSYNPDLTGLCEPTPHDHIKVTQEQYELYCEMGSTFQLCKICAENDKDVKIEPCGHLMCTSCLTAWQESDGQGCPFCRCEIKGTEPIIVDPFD
Method in brief: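 Binding-based Cbl-b activity assay. Src-phosphorylated, N-terminally biotin-Avi-tagged Cbl-b recruits labelled UbcH5B-Ub, and proximity to streptavidin-terbium yields FRET.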

Cbl-b (residues 36-427) = Cbl-b (residues 36-427) (Homo sapiens, UniProt Q13191); assay: Cbl-b binding assay (SPR, Biacore T200); settings: 20° C., 1:1 binding model
Chain of Cbl-b (residues 36-427) (Q13191 36-427): as above
Method in brief: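 Affinities derived from global 1:1 steady-state or kinetic fits of double-referenced, solvent-corrected SPR data, 20 °C, NeutrAvidin-capture chip. Compound series (top 100 or 50 μM, 8–10 points) injected 50 s, 90–180 s dissociation. Asterisked values used 50 mM instead of 100 mM NaCl and 30 nM Src kinase.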

Cbl-b [2] = target: T1, Cbl-b; assay: Cbl-b activity assay (Cbl-b inhibition assay), TR-FRET of Cbl-b interaction with UbcH5B-Ub; format: biochemical
Method in brief: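 TR-FRET readout of Cbl-b binding to Bodipy-fluorescein N-terminally labeled Ub conjugated to UbcH5B C85K, measured with compound present. After compound incubation, 60 nM Src kinase with 1 mM ATP and 5 mM MgCl2 (final) was added for 1.5 h, then a further 1 h incubation; asterisked values used 50 mM NaCl buffer and 30 nM Src.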

[3] = assay buffer with 100 mM NaCl, 60 nM Src kinase, read-out: Cbl-b activity IC50
[4] = * assay buffer containing 50 mM NaCl instead of 100 mM NaCl and 30 nM Src kinase instead of 60 nM, read-out: Cbl-b activity IC50 (μM)*

Compound	fold induction at 1 µM (T-cell)	fold induction at 8 µM (T-cell)	IC50 (Cbl-b [1])	Kd (Cbl-b (residues 36-427))	IC50 (Cbl-b [2]; [3])	IC50 (Cbl-b [2]; [4])
Cn1cnnc1C(F)(F)C(C)(F)c1cccc(N2Cc3c(cccc3C(F)(F)F)C2=O)c1 (racemic) [Compound 296, 2-(3-(1,1,2-trifluoro-1-(4-methyl-4H-1,2,4-triazol-3-yl)propan-2-yl)phenyl)-4-(trifluoromethyl)isoindolin-1-one]	> 0.201	> 0.201	≤ 1000 nM	3000 to 10000 nM	0.301 to 1 µM	
Cn1cnnc1CC(C)(F)c1cccc(N2Cc3c(cccc3C(F)(F)F)C2=O)c1 (racemic) [Compound 298, 2-(3-(2-fluoro-1-(4-methyl-4H-1,2,4-triazol-3-yl)propan-2-yl)phenyl)-4-(trifluoromethyl)isoindolin-1-one]	0.051 to 0.1	0.101 to 0.15	≤ 500 nM	< 100 nM	0.1 to 0.3 µM	
C[C@H](Cc1nncn1C)c1cc(N[C@@H]2CCOC2)nc(N2Cc3c(cccc3C(F)(F)F)C2=O)c1 (stereo in doubt) [Compound 362, 2-(4-((R)-1-(4-methyl-4H-1,2,4-triazol-3-yl)propan-2-yl)-6-((S)-THF-3-ylamino)pyridin-2-yl)-4-(trifluoromethyl)isoindolin-1-one]	0.051 to 0.1	0.101 to 0.15	≤ 300 nM	100 to 300 nM	0.1 to 0.3 µM	
Cc1cc(C(=O)Nc2cccc([C@H](C)Sc3nncn3C)c2)nc2ccccc12 [Compound 30, (S)-4-Methyl-N-(3-(1-((4-methyl-4H-1,2,4-triazol-3-yl)thio)ethyl)phenyl)quinoline-2-carboxamide]	0.051 to 0.1	0.101 to 0.15	≤ 500 nM	1000 to 3000 nM	0.301 to 1 µM	0.301 to 1 µM
C[C@H](Sc1nncn1C)c1cccc(NC(=O)c2cc(C(F)(F)F)ccn2)c1 [Compound 32, (S)-N-(3-(1-((4-Methyl-4H-1,2,4-triazol-3-yl)thio)ethyl)phenyl)-4-(trifluoromethyl)picolinamide]	< 0.05	0.101 to 0.15	≤ 10000 nM	1000 to 3000 nM	3 to 10 µM	1 to 3 µM
CC(C)c1cccc(C(=O)Nc2cccc([C@H](C)Sc3nncn3C)c2)n1 [Compound 33, (S)-6-Isopropyl-N-(3-(1-((4-methyl-4H-1,2,4-triazol-3-yl)thio)ethyl)phenyl)picolinamide]	< 0.05	< 0.05	≤ 500 nM	301 to 1000 nM	0.1 to 0.3 µM	0.301 to 1 µM
Cc1ccc(C(=O)Nc2cccc([C@H](C)Sc3nncn3C)c2)nc1C [Compound 35, (S)-5,6-Dimethyl-N-(3-(1-((4-methyl-4H-1,2,4-triazol-3-yl)thio)ethyl)phenyl)picolinamide]	< 0.05	> 0.201	≤ 1000 nM	3000 to 10000 nM	0.301 to 1 µM	0.301 to 1 µM
Cc1cccc2nc(C(=O)Nc3cccc([C@H](C)Sc4nncn4C)c3)ccc12 [Compound 48, 5-Methyl-N-[3-[(1S)-1-[(4-methyl-4H-1,2,4-triazol-3-yl)sulfanyl]ethyl]phenyl]quinoline-2-carboxamide]	< 0.05	0.101 to 0.15	≤ 500 nM	1000 to 3000 nM	0.301 to 1 µM	
C[C@H](Sc1nncn1C)c1cccc(NC(=O)c2ccc(Cl)c(C(F)(F)F)n2)c1 [Compound 51, (S)-5-chloro-N-(3-(1-((4-methyl-4H-1,2,4-triazol-3-yl)thio)ethyl)phenyl)-6-(trifluoromethyl)picolinamide]	< 0.05	< 0.05	≤ 500 nM	301 to 1000 nM	0.1 to 0.3 µM	
C[C@H](Sc1nncn1C)c1cccc(NC(=O)c2cc(C(C)(C)O)c(Cl)cn2)c1 [Compound 55, (S)-5-chloro-4-(2-hydroxypropan-2-yl)-N-(3-(1-((4-methyl-4H-1,2,4-triazol-3-yl)thio)ethyl)phenyl)picolinamide]	< 0.05	< 0.05	≤ 1000 nM	1000 to 3000 nM	0.301 to 1 µM	
Cc1cc(C)nc(C(=O)Nc2cccc([C@H](C)Sc3nncn3C)c2)c1 [Compound 56, (S)-4,6-dimethyl-N-(3-(1-((4-methyl-4H-1,2,4-triazol-3-yl)thio)ethyl)phenyl)picolinamide]	< 0.05	< 0.05	≤ 1000 nM	1000 to 3000 nM	0.301 to 1 µM	
Cc1ccc(C(=O)Nc2cccc([C@H](C)Sc3nncn3C)c2)nc1C(F)(F)F [Compound 61, (S)-5-methyl-N-(3-(1-((4-methyl-4H-1,2,4-triazol-3-yl)thio)ethyl)phenyl)-6-(trifluoromethyl)picolinamide]	< 0.05	< 0.05	≤ 500 nM	100 to 300 nM	0.1 to 0.3 µM	
COc1nc(C(=O)Nc2cccc([C@H](C)Sc3nncn3C)c2)cc2ccccc12 [Compound 62, (S)-1-methoxy-N-(3-(1-((4-methyl-4H-1,2,4-triazol-3-yl)thio)ethyl)phenyl)isoquinoline-3-carboxamide]	< 0.05	0.051 to 0.1	≤ 500 nM	301 to 1000 nM	0.1 to 0.3 µM	
C[C@H](Sc1nncn1C)c1cccc(NC(=O)c2cc(C(F)(F)F)cc(C(F)(F)F)n2)c1 [Compound 64, (S)-N-(3-(1-((4-methyl-4H-1,2,4-triazol-3-yl)thio)ethyl)phenyl)-4,6-bis(trifluoromethyl)picolinamide]	< 0.05	< 0.05	≤ 1000 nM	1000 to 3000 nM	0.301 to 1 µM	
C[C@H](Sc1nncn1C)c1cccc(NC(=O)c2cc(Cl)cc(C(F)(F)F)n2)c1 [Compound 68, (S)-4-chloro-N-(3-(1-((4-methyl-4H-1,2,4-triazol-3-yl)thio)ethyl)phenyl)-6-(trifluoromethyl)picolinamide]	< 0.05	0.051 to 0.1	≤ 500 nM	301 to 1000 nM	0.1 to 0.3 µM	
C[C@H](Sc1nncn1C)c1cccc(NC(=O)c2cc(C(F)(F)F)cc(C3CC3)n2)c1 [Compound 69, (S)-6-cyclopropyl-N-(3-(1-((4-methyl-4H-1,2,4-triazol-3-yl)thio)ethyl)phenyl)-4-(trifluoromethyl)picolinamide]	< 0.05	< 0.05	≤ 500 nM	3000 to 10000 nM	0.301 to 1 µM	
Cc1ncc(C(=O)Nc2cccc([C@H](C)Sc3nncn3C)c2)nc1C1CC1 [Compound 70, (S)-6-cyclopropyl-5-methyl-N-(3-(1-((4-methyl-4H-1,2,4-triazol-3-yl)thio)ethyl)phenyl)pyrazine-2-carboxamide]	< 0.05	0.051 to 0.1	≤ 500 nM	301 to 1000 nM	0.1 to 0.3 µM	
C[C@H](Cc1nncn1C)c1cccc(NC(=O)c2cccc(CCO)n2)c1 [Compound 202, 6-(2-hydroxyethyl)-N-[3-[(2R)-1-(4-methyl-4H-1,2,4-triazol-3-yl)propan-2-yl]phenyl]pyridine-2-carboxamide]	0.051 to 0.1	0.151 to 0.2	≤ 1000 nM		0.301 to 1 µM	
Cn1cnnc1C(F)(F)[C@](C)(F)c1cccc(N2Cc3c(cccc3C(F)(F)F)C2=O)c1 [Compound 296a, (R)-2-(3-(1,1,2-trifluoro-1-(4-methyl-4H-1,2,4-triazol-3-yl)propan-2-yl)phenyl)-4-(trifluoromethyl)isoindolin-1-one]	0.151 to 0.2	> 0.201	≤ 500 nM		0.1 to 0.3 µM	
Cn1cnnc1[C@@H]1C[C@@H]1c1cccc(N2Cc3c(ccnc3C(F)(F)F)C2=O)c1 [Compound 369, 2-{3-[(1S,2R)-2-(4-methyl-4H-1,2,4-triazol-3-yl)cyclopropyl]phenyl}-4-(trifluoromethyl)-1H,2H,3H-pyrrolo[3,4-c]pyridin-1-one]					0.301 to 1 µM	
Cc1cc2c(c(C3CC3)n1)CN(c1cccc([C@H](C)Cc3nncn3C)c1)C2=O [Compound 372, 4-cyclopropyl-6-methyl-2-{3-[(2R)-1-(4-methyl-4H-1,2,4-triazol-3-yl)propan-2-yl]phenyl}-1H,2H,3H-pyrrolo[3,4-c]pyridin-1-one]					0.301 to 1 µM	
CNCc1ccc(C(=O)Nc2cccc([C@H](C)Cc3nncn3C)c2)nc1C1CC1 [Compound 376, (R)-6-cyclopropyl-N-(3-(1-(4-methyl-4H-1,2,4-triazol-3-yl)propan-2-yl)phenyl)-5-((methylamino)methyl)picolinamide]			≤ 300 nM		0.1 to 0.3 µM	
